Test results as given in article PMC9029695, “5-Aryl-1,3,4-oxadiazol-2-amines Decorated with Long Alkyl and Their Analogues: Synthesis, Acetyl- and Butyrylcholinesterase Inhibition and Docking Study” (Pharmaceuticals, 2022).

Tests used:
[1] = biological target: T1, BChE from equine serum (EqBChE) (Equus caballus, UniProt P81908); test: Inhibition of BChE, modified Ellman's spectrophotometric method; type: biochemical; conditions: for IC50: EqBChE, Ellman's method, mean ± SD, n = three independent experiments
T1 construct: butyrylcholinesterase originated from equine serum (EqBChE); purchased Merck (Prague, Czech Republic); host or cells: equine serum
Source text: (§1) The heterocycles 3 were screened for their ability to interfere with the function of AChE from electric eel (EeAChE) and BChE from equine serum (EqBChE) using Ellman’s method (Table 1). Their activities are expressed as the concentration producing 50% inhibition of enzymatic activity (IC50). In addition, we calculated selectivity indexes (SI) that quantify the selectivity for AChE as more inhibited cholinesterase. SI is the ratio of IC50 for BChE/IC50 for AChE.
(§2) Enzyme inhibition activity of 3 quantified as IC50 values was determined spectrophotometrically using modified Ellman’s method. […] The enzyme activity is measured indirectly by determination of 5-mercapto-2-nitrobenzoic acid ion formed after reaction of the thiol reagent 5,5′-disulfanediyl-bis(2-nitrobenzoic acid) (DTNB) and thiocholine, a product of acetylthiocholine (ATCh) and butyrylthiocholine (BTCh) as substrates for hydrolysis by AChE and BChE, respectively.
(§3) The enzyme activity in final reaction mixture (2000 µL) was 0.2 U/mL, concentration of ATCh (or BTCh) 40 µM and concentration of DTNB 100 µM for all reactions. The compounds 3 were dissolved in DMSO and then diluted in demineralized water (conductivity 3 μS, equipment supplier BKG Water Treatment, Hradec Králové, Czech Republic) to the concentration of 1000 µM. […] The final concentration of DMSO was 0.2%. All experiments were carried in triplicates. The average values of reaction rate (v0-uninhibited reaction, vi-inhibited reaction) were used for construction of the dependence v0/vi vs. concentration of inhibitor. From obtained equation of regression curve, IC50 values were calculated.
(§4) Acetylcholinesterase was used from electric eel (Electrophorus electricus L.; EeAChE) and butyrylcholinesterase originated from equine serum (EqBChE).

[2] = biological target: T2, AChE from electric eel (EeAChE) (Electrophorus electricus, UniProt O42275); test: Inhibition of AChE, modified Ellman's spectrophotometric method; type: biochemical, electric eel (Electrophorus electricus L.); conditions: for IC50: EeAChE, Ellman's method, mean ± SD, n = three independent experiments
T2 construct: purchased Merck (Prague, Czech Republic)
Source text: as §1, §2, §3, §4

[3] = biological target: T3, AChE (Electrophorus electricus, UniProt O42275); test: Reversibility of AChE inhibition (residual enzyme activity over time); type: biochemical, electric eel (Electrophorus electricus L.)
T3 construct: purchased Merck (Prague, Czech Republic)
Source text: Based on the promising in vitro inhibition of AChE by thiadiazole 3t, we investigated the derivative to distinguish between reversible, pseudo-irreversible and irreversible inhibition on the basis of changes in enzyme activity over time in the presence of the inhibitor. In reversible inhibition, the activity of enzyme goes down immediately, but the inhibitory molecule is bound to the target for a short period of time, after which the inhibitor-enzyme complex dissociates, and enzyme activity is restored. In pseudo-irreversible inhibition, the inhibitor binds covalently to the enzyme, but the bond is broken down more slowly, delaying the return of enzyme activity to its initial state. In the case of irreversible inhibitors, the reaction between the enzyme and the inhibitor is not rapid because there is a time-dependent drop of activity. Irreversible inhibitors decrease enzyme activity gradually. […]
Three different inhibitor concentrations (1, 10, and 100 µM) were chosen. […] At given times (5, 10, 15, 20, 30, 40, 50, 60, 260, and 1450 min), DTNB and ATCh were added to the sample taken from the reaction mixture, mixed rapidly, and the absorbance was measured to quantify the enzyme activity. Based on knowledge of the enzyme activity in the absence of the inhibitor (i.e., 100% activity), the percentages of residual enzyme activity in presence of inhibitor were calculated. […]

[4] = biological target: T3, AChE; test: Type of AChE inhibition (Lineweaver–Burk plot); type: biochemical, electric eel (Electrophorus electricus L.); conditions: ATCh 20–80 µM, inhibitor 10, 25, 35 and 50 µM
Source text: We also valuated the type of inhibition of 3t using AChE. In general, the reversible inhibitors can be classified as competitive, non-competitive, uncompetitive, or mixed type. The type of inhibition could be distinguished using the Lineweaver–Burk plot and the corresponding comparison of two key kinetic parameters: maximum velocity (Vm) and Michaelis constant (KM) of the inhibited and uninhibited reactions. Based on the changes of these parameters and intercept of the lines in Lineweaver–Burk plot, the type of inhibition is uncovered.
The inhibition is associated with a change in both KM and Vm and also their ratio is different compared to the uninhibited reaction. In the Lineweaver–Burk plot, the intersection of the lines is in quadrant III but not on axis.
The procedure was analogous to the determination of IC50. The enzyme activity in the final reaction mixture (2000 µL) was 0.2 U/mL, concentration of ATCh 20–80 µM and concentration of DTNB was 100 µM. For each of the substrate concentrations, four different concentrations of the inhibitor were used (10, 25, 35 and 50 µM). The dependence of absorbance vs. time was observed and the reaction rate was calculated. […] From obtained equations of regression curves in Lineweaver–Burk plot, the values of Michaelis constant (KM) and maximum velocity (Vm) were calculated. […]

T2 sequence (O42275 24-633): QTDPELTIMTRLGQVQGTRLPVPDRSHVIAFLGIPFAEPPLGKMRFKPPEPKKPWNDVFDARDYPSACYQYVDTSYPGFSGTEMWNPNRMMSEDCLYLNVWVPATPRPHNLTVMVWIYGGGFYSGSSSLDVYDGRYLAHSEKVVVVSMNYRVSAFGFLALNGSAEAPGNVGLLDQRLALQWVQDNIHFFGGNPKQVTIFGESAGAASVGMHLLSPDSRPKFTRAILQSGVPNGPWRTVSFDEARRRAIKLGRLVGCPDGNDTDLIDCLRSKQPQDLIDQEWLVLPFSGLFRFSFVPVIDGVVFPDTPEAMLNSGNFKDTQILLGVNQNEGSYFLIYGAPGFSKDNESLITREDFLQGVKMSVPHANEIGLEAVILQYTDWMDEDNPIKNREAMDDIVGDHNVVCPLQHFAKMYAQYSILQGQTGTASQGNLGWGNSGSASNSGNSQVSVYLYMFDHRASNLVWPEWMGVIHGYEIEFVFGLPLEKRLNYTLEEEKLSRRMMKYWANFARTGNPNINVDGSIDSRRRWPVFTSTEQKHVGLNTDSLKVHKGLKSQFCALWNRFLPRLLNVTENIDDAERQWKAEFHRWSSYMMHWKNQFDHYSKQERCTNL
T3 sequence (O42275 24-633): as above
T1 sequence (P81908 whole entry): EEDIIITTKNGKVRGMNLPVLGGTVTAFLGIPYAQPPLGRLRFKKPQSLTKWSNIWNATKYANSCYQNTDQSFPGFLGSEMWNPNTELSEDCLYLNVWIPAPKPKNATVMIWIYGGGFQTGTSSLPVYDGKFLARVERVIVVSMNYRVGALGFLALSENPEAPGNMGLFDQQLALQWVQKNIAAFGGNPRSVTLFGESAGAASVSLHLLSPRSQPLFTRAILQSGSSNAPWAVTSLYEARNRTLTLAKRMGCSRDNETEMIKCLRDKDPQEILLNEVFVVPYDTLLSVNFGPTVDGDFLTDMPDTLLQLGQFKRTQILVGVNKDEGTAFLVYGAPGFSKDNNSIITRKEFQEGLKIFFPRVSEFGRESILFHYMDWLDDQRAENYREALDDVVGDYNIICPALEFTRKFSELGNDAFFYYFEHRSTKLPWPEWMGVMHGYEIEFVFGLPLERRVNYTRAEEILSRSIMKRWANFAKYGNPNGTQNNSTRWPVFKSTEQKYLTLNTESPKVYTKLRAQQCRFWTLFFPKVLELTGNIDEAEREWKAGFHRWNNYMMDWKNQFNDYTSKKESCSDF

Row | SMILES | IC50 [1] | IC50 [2] | BChE/AChE Ratio (selectivity index, IC50 for BChE/IC50 for AChE) [2] | fold lower AChE inhibition, oxadiazole vs. thiadiazole 3t ([2]; 3t vs. 3l) | fold boost of BChE inhibitory potency, switch of oxygen to sulfur ([1]; 3l vs. 3t) | reversibility of AChE inhibition ([3]; 1, 10 and 100 µM, residual activity followed 5–1450 min) | time at which almost maximum inhibition is reached ([3]; two lower concentrations (1 and 10 µM)) | fold higher in vitro activity (IC50) against AChE than rivastigmine ([2]; compared with rivastigmine) | type of inhibition [4]
1 | CCCCCCCCCCCCNc1nnc(-c2ccc(OC)cc2)o1 [3c, N-Dodecyl-5-(4-methoxyphenyl)-1,3,4-oxadiazol-2-amine] | 225 ± 11 µM | 33.86 ± 0.27 µM | 6.6 | – | – | – | – | – | –
2 | CCCCCCCCCCCCNc1nnc(-c2ccnnc2)o1 [3r, N-Dodecyl-5-(pyridazin-4-yl)-1,3,4-oxadiazol-2-amine] | 238 ± 13.8 µM | 81.5 ± 4.14 µM | 2.9 | – | – | – | – | – | –
3 | CCCCCCCCCCCCNc1nnc(-c2ccncc2)o1 [3l, N-Dodecyl-5-(pyridin-4-yl)-1,3,4-oxadiazol-2-amine] | 223 ± 1.54 µM | 50.2 ± 0.79 µM | 4.4 | 3.9 × | – | – | – | – | –
4 | CCCCCCCCCCCCNc1nnc(-c2ccccc2)o1 [3a, N-Dodecyl-5-phenyl-1,3,4-oxadiazol-2-amine] | 149 ± 1.69 µM | 40.1 ± 0.54 µM | 3.7 | – | – | – | – | – | –
5 | CCCCCCCCCCCCNc1nnc(-c2ccc(N(C)C)cc2)o1 [3f, 5-[4-(Dimethylamino)phenyl]-N-dodecyl-1,3,4-oxadiazol-2-amine] | 316 ± 6.22 µM | 87.99 ± 0.81 µM | 3.6 | – | – | – | – | – | –
6 | CCCCCCCCCCCCc1nnc(-c2ccncc2)o1 [3u, 2-Dodecyl-5-(pyridin-4-yl)-1,3,4-oxadiazole] | 289 ± 1.55 µM | 99.2 ± 3.26 µM | 2.9 | – | – | – | – | – | –
7 | CCCCCCCCCCCCNc1nnc(-c2ccc(I)cc2)o1 [3j, N-Dodecyl-5-(4-iodophenyl)-1,3,4-oxadiazol-2-amine] | 482 ± 6.15 µM | 37.8 ± 1.83 µM | 12.7 | – | – | – | – | – | –
8 | CCCCCCCCCCCCNc1nnc(-c2ccc(C(C)(C)C)cc2)o1 [3d, 5-[4-(tert-Butyl)phenyl]-N-dodecyl-1,3,4-oxadiazol-2-amine] | 152 ± 6.02 µM | 65.2 ± 0.72 µM | 2.3 | – | – | – | – | – | –
9 | CCCCCCCCCCCCNc1nnc(-c2ccccn2)o1 [3n, N-Dodecyl-5-(pyridin-2-yl)-1,3,4-oxadiazol-2-amine] | 315.4 ± 1.96 µM | 60.5 ± 2.42 µM | 5.2 | – | – | – | – | – | –
10 | CCCCCCCCCCCCNc1nnc(-c2ccc(F)cc2)o1 [3g, N-Dodecyl-5-(4-fluorophenyl)-1,3,4-oxadiazol-2-amine] | 266.7 ± 2.59 µM | 36.7 ± 1.59 µM | 7.3 | – | – | – | – | – | –
11 | CCCCCCCCCCCCNc1nnc(-c2ccc([N+](=O)[O-])cc2)o1 [3e, N-Dodecyl-5-(4-nitrophenyl)-1,3,4-oxadiazol-2-amine] | 105.2 ± 0.94 µM | 70.46 ± 0.59 µM | 1.5 | – | – | – | – | – | –
12 | CCCCCCCCCCCCSc1nnc(-c2ccncc2)o1 [3s, 2-(Dodecylthio)-5-(pyridin-4-yl)-1,3,4-oxadiazole] | > 500 µM | 91.6 ± 7.14 µM | >5.5 | – | – | – | – | – | –
13 | CCCCCCCCCCCCNc1nnc(-c2cc([N+](=O)[O-])cc([N+](=O)[O-])c2)o1 [3k, 5-(3,5-Dinitrophenyl)-N-dodecyl-1,3,4-oxadiazol-2-amine] | 384 ± 5.34 µM | 40.98 ± 0.11 µM | 9.4 | – | – | – | – | – | –
14 | CCCCCCCCCCCCNc1nnc(-c2ccncn2)o1 [3o, N-Dodecyl-5-(pyrimidin-4-yl)-1,3,4-oxadiazol-2-amine] | 298.3 ± 2.19 µM | 45.5 µM | 6.6 | – | – | – | – | – | –
15 | CCCCCCCCCCCCNc1nnc(-c2cccnc2)o1 [3m, N-Dodecyl-5-(pyridin-3-yl)-1,3,4-oxadiazol-2-amine] | 369 ± 3.83 µM | 64.2 ± 0.93 µM | 5.8 | – | – | – | – | – | –
16 | CCCCCCCCCCCCNc1nnc(-c2ccncc2)s1 [3t, N-Dodecyl-5-(pyridin-4-yl)-1,3,4-thiadiazol-2-amine] | 53.1 ± 3.68 µM | 12.78 ± 0.03 µM | 4.2 | – | 4.2 × | reversible AChE inhibitor | 5 min | 4.4 × | mixed type of inhibition
17 | CCCCCCCCCCCCNc1nnc(-c2ccnc(Br)c2)o1 [3q, 5-(2-Bromopyridin-4-yl)-N-dodecyl-1,3,4-oxadiazol-2-amine] | 224.2 ± 1.29 µM | 73.4 ± 2.06 µM | 3.1 | – | – | – | – | – | –
18 | CCCCCCCCCCCCNc1nnc(-c2cnccn2)o1 [3p, N-Dodecyl-5-(pyrazin-2-yl)-1,3,4-oxadiazol-2-amine] | 452 ± 59.3 µM | 92.1 ± 6.11 µM | 4.9 | – | – | – | – | – | –
19 | CCCCCCCCCCCCNc1nnc(-c2ccc(Br)cc2)o1 [3i, 5-(4-Bromophenyl)-N-dodecyl-1,3,4-oxadiazol-2-amine] | 369 ± 5.82 µM | 40 ± 0.98 µM | 9.2 | – | – | – | – | – | –
20 | CCCCCCCCCCCCNc1nnc(-c2ccc(C)cc2)o1 [3b, N-Dodecyl-5-(p-tolyl)-1,3,4-oxadiazol-2-amine] | 90 ± 2.35 µM | 34.6 ± 0.96 µM | 2.6 | – | – | – | – | – | –
21 | CCCCCCCCCCCCNc1nnc(-c2ccc(Cl)cc2)o1 [3h, 5-(4-Chlorophenyl)-N-dodecyl-1,3,4-oxadiazol-2-amine] | 444 ± 8.5 µM | 50.2 ± 1.88 µM | 8.8 | – | – | – | – | – | –
